The target of test [1] is T1, recombinant ADAMTS1 (p65-ADAMTS1) expressed in E. coli (Homo sapiens, UniProt Q9UHI8).
T1 construct: 1452 nt cDNA fragment (nt 1206-2657, 484 codons; propeptide and C-terminal part absent; primer starts at KRFVSS, ends ISGSVTSA); pET32a Trx fusion, Trx removed by enterokinase, C-terminal His tag; E. coli BL21(DE3); heparin-sepharose purified; fusion about 70 kDa
T1 sequence (Q9UHI8 251-734): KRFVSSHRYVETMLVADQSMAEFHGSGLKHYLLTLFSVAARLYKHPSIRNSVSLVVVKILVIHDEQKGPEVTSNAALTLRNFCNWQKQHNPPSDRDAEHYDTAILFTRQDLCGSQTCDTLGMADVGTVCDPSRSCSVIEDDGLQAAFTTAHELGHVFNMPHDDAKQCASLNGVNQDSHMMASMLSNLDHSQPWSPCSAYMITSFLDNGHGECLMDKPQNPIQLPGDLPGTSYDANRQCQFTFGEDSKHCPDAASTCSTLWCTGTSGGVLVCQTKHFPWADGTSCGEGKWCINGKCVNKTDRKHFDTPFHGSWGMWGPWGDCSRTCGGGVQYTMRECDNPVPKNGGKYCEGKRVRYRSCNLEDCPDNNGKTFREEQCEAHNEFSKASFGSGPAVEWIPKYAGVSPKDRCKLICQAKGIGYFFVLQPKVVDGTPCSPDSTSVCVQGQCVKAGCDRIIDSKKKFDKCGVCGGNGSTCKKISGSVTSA
Put plainly: FRET peptide cleavage assay (Abz/Dnp), dose-response. Format: biochemical. An excerpt:
FRET peptide cleavage assay (Abz/Dnp), dose-response on recombinant ADAMTS1 (p65-ADAMTS1) expressed in E. coli

Test [2] addresses T2, human recombinant ADAMTS1 expressed in the murine myeloma cell line (R&D Systems) (Homo sapiens, UniProt Q9UHI8).
T2 construct: commercial recombinant protein from R&D Systems, murine myeloma cell line
T2 sequence (Q9UHI8 253-967): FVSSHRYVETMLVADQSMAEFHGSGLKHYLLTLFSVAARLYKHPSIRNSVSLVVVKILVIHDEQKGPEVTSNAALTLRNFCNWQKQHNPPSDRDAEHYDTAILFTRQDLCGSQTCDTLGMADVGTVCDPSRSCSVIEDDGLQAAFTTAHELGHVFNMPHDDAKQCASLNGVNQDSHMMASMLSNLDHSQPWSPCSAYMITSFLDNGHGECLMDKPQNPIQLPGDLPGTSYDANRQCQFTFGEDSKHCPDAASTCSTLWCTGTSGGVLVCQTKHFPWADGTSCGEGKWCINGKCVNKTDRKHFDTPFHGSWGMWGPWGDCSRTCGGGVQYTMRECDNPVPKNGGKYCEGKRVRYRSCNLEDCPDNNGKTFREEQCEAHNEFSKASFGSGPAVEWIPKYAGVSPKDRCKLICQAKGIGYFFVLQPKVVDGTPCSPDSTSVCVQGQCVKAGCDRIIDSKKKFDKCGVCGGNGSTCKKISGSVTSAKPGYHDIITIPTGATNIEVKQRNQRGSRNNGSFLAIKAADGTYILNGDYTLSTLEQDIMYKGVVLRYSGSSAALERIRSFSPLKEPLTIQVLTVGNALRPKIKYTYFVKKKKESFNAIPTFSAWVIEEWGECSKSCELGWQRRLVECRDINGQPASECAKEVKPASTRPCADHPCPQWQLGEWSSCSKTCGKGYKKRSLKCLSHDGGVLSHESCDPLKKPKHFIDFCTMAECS
The description is as above. The class given is biochemical. An excerpt:
FRET peptide cleavage assay (Abz/Dnp), dose-response on human recombinant ADAMTS1 expressed in the murine myeloma cell line (R&D Systems)

The source of these data is article PMC6264766, “Fluorescence Resonance Energy Transfer Assay for High-Throughput Screening of ADAMTS1 Inhibitors” (Molecules, 2011).

One may read the IC50 as the midpoint of a concentration-inhibition curve.

SMILES strings stand for the structures.

With `CC1=C[C@H](c2cc(/C=C/c3cc(O)cc(O)c3)c(O)cc2O)[C@@H](C(=O)c2ccc(O)cc2O)[C@H](c2ccc(O)cc2O)C1` [J14713, kuwanon P], the IC50 in test [1] amounted to 7.6 ± 0.6 µM; in test [2] it was 5.5 ± 0.4 µM.

For `CC1=C[C@H](c2cc3cc(-c4cc(O)cc(O)c4)oc3cc2O)[C@@H](C(=O)c2ccc(O)cc2O)[C@H](c2ccc(O)cc2O)C1` [J14715, albafuran C], the IC50 in test [1] amounted to 11.9 ± 0.7 µM; in test [2], 10.7 ± 0.6 µM.
